Laboratory results from EP4636093A1, “TARGETING MAPK-ERK PATHWAY FOR ENHANCING NUCLEIC ACID DELIVERY” (priority 2024, dated 2025).
Read-outs that look alike come from different tables or passages of the source.

Tests used:
[1] = system: T cells; assay type: cell-based, Human; conditions: for increase in CAR expression: with vs without 400 nM deucravacitinib
[2] = system: human T lymphocytes; assay type: cell-based; conditions: AAV6 (GFP); 20 µM Vx-11e compared to untreated cells; average, three donors

Cc1cnc(Nc2ccc(F)cc2Cl)nc1-c1c[nH]c(C(=O)N[C@H](CO)c2cccc(Cl)c2)c1 [VX-11e] was tested, and the optimal doses [1] was 20 µM, the “VSV-LV mediated transduction efficiency increase” value ([1]; VSV-LV, 20 µM VX-11e, average, three donors) was “up to 1.8 fold” and the “AAV6 mediated transduction efficiency increase” value [2] was “up to 2.1 fold”.

For CC(C)Nc1cc(-c2c[nH]c(C(=O)N[C@H](CO)c3cccc(Cl)c3)c2)c(Cl)cn1 [ulixertinib], the optimal doses [1] was 5 µM.

In the case of Deucravacitinib, the “increase in CAR expression” value ([1]; CD4-LV, CD4 T cells, average, three donors) is reported as “up to 1.7 fold”, the “increase in CAR expression” value ([1]; CD8-LV, CD8 T cells, average, three donors) is reported as ≤ 3.6 fold and the optimal dose ([1]; treatment of cells for 24 hours, CAR expression after LV transduction (one donor)) is reported as 400 nM.
